What was measured:
[1] = test system: AD constricted rabbit aorta; assay: Relaxing effects on vascular smooth muscle constricted by adrenaline hydrochloride (AD) in vitro; details: Oryctolagus cuniculus; relaxation of rabbit aorta constricted by adrenaline (10^−5 mol/L); mean±SEM, n=5
Method: Adrenaline hydrochloride (AD) (10^−5 mol/L) was added into a bath tube to induce constriction, when maximal constriction was achieved, the sample was completely flushed, K-H solution was changed for every 20 min. Contents in the tube was balanced for 60 min, when baseline recovered to be stable, the […] was added at the same concentration to induce constriction. When the later maximal constriction response was basically consistent with the former one, the prepared compound solutions were subsequently added, including compound II-1 to II-60 solutions (1×10^−8-1×10^−3 mol/L), compound II-84 to II-123 solutions (1×10^−10-1×10^−2 mol/L) and compound II-124 to II-157 solutions (1×10^−10˜1×10^−3 mol/L), to record the waveforms. Relaxing percentage of the compound was used as Y axis, maximal relaxation response was 100%, negative logarithm of different concentration was used as X axis, to draw dose effect curve (expressed in mean±SEM ( ? ), n=5). Compounds II-2 and II-3 had the most obvious relaxing effects (FIG. 1 and FIG. 8).

[2] = test system: high kalium concentration constricted rabbit aorta; assay: Relaxing effects on vascular smooth muscle constricted by high kalium concentration in vitro; details: Oryctolagus cuniculus, relaxation of rabbit aorta constricted by high kalium solution (K+ 60 mmol/L); mean±SEM, n=5
Method: Adrenaline hydrochloride (AD) (10^−5 mol/L) was added into a bath tube to induce constriction, when maximal constriction was achieved, the sample was completely flushed, K-H solution was changed for every 20 min. Contents in the tube was balanced for 60 min, when baseline recovered to be stable, K-H solution in the bath tube was replaced with high kalium concentration solution to induce constriction. When the later maximal constriction response was basically consistent with the former one, the prepared compound solutions were subsequently added, including compound II-1 to II-60 solutions (1×10^−8-1×10^−3 mol/L), compound II-84 to II-123 solutions (1×10^−10-1×10^−2 mol/L) and compound II-124 to II-157 solutions (1×10^−10-1×10^−3 mol/L), to record the waveforms. Relaxing percentage of the compound was used as Y axis, maximal relaxation response was 100%, negative logarithm of different concentration was used as X axis, to draw dose effect curve (expressed in mean±SEM ( ? ), n=5). Compounds II-2 and II-3 had the most obvious relaxing effects (FIG. 2 and FIG. 9).

| EC50 [1] [µM] | EC50 [2] [µM] | SMILES |
| --- | --- | --- |
| 19.1 | 38 | FC(F)(F)c1cccc(N2CCN(CCCOn3cnc4ccccc43)CC2)c1 [II-23, 1-(4-(4-(3-trifluoromethylphenyl)piperazine-1-yl)propoxyl)-1H-benzimidazole] |
| 44.7 | 70.8 | c1coc(N2CCN(CCCCn3cnc4ccccc43)CC2)c1 [II-12, 1-(4-(4-(2-furyl)piperazine-1-yl)butyl)-1H-benzimidazole] |
| 4.47 | 5.13 | COc1cccc(N2CCN(CCCCn3nnc4ccccc43)CC2)c1 [II-40, 1-(4-(4-(3-methoxyphenyl)piperazine-1-yl)butyl)-1H-benzotriazole] |
| 61.7 | 263 | FC(F)(F)c1cccc(N2CCN(CCCCn3ccc4ccccc43)CC2)c1 [II-57, 1-(4-(4-(3-trifluoromethylphenyl)piperazine-1-yl)butyl)-1H-indole] |
| 148 | 372 | c1ccc2nc(N3CCN(CCCCn4nnc5ccccc54)CC3)cnc2c1 [II-48, 1-(4-(4-(2-quinoxalinyl)piperazine-1-yl)butyl)-1H-benzotriazole] |
| 30.2 | 30.2 | Clc1cccc(N2CCN(CCCOn3cnc4ccccc43)CC2)c1 [II-24, 1-(4-(4-(3-chlorphenyl)piperazine-1-yl)propoxyl)-1H-benzimidazole] |
| 64.6 | 102 | N#Cc1ccc2ncn(CCCCN3CCN(c4cccc(C(F)(F)F)c4)CC3)c2c1 [II-26, 6-cyano-1-(4-(4-(3-trifluoromethylphenyl)piperazine-1-yl)butyl)-1H-benzimidazole] |
| 60.3 | 89.1 | c1cnc(N2CCN(CCCCn3cnc4ccccc43)CC2)nc1 [II-14, 1-(4-(4-(2-pyrimidinyl)piperazine-1-yl)butyl)-1H-benzimidazole] |
| 51.3 | 162 | c1ccc(N2CCN(CCCn3cnc4ccccc43)CC2)cc1 [II-7, 1-(3-(4-phenylpiperazine-1-yl)propyl)-1H-benzimidazole] |

More lines, now with the values behind:

| SMILES | EC50 [1] [µM] | EC50 [2] [µM] |
| --- | --- | --- |
| FC(F)(F)c1cccc(N2CCN(CCCCn3nnc4ccc(Cl)cc43)CC2)c1 [II-54, 6-chloro-1-(4-(4-(3-trifluoromethylphenyl)piperazine-1-yl)butyl)-1H-benzotriazole] | 6.17 | 12.3 |
| Clc1cccc(N2CCN(CCCCn3cnc4ccccc43)CC2)c1Cl [II-3, 1-(4-(4-(2,3-dichlorophenyl)piperazine-1-yl)butyl)-1H-benzimidazole] | 0.977 | 3.24 |
| COC(=O)c1ccc2nnn(CCCCN3CCN(c4cccc(C(F)(F)F)c4)CC3)c2c1 [II-56, 6-methoxycarbonyl-1-(4-(4-(3-trifluoromethylphenyl)piperazine-1-yl)butyl)-1H-benzotriazole] | 55 | 309 |
| Fc1ccc2c(N3CCN(CCCOn4cnc5ccccc54)CC3)noc2c1 [II-22, 1-(3-(4-(3-(6-fluorobenzisoxazolyl))piperazine-1-yl)propoxyl)-1H-benzimidazole] | 28.2 | 22.9 |
| Fc1ccc2c(N3CCN(CCCn4nnc5ccccc54)CC3)coc2c1 [II-51, 1-(3-(4-(3-(6-fluorobenzofuranyl))piperazine-1-yl)propyl)-1H-benzotriazole] | 30.2 | 34.7 |
| N#Cc1ccc2cnn(CCCN3CCN(c4cccc(Cl)c4Cl)CC3)c2c1 [II-60] | 89.1 | 155 |
| Cc1nc2ccccc2n1CCCN1CCN(c2cccc(F)c2)CC1 [II-9, 2-methyl-1-(3-(4-(3-fluorophenyl)piperazine-1-yl)propyl)-1H-benzimidazole] | 42.7 | 52.5 |
| COC(=O)c1ccc2ncn(CCCCN3CCN(c4cccc(C(F)(F)F)c4)CC3)c2c1 [II-27, 6-methoxycarbonyl-1-(4-(4-(3-trifluoromethylphenyl)piperazine-1-yl)butyl)-1H-benzimidazole] | 49 | 87.1 |
